Patent publication US20220040141A1, “ULTRAPURE PHENOL COMPOSITIONS” (priority 2018, published 2022)

Assays:
[1] = Physical properties of CBD and its oil compositions; format: physicochemical; details: isolate powder, about 99% pure CBD
Source text: The highest purity CBD is known as an isolate. The clear oil, or distillate, goes through another purification process, where it is converted into powder using a solvent, for example, hexane, at low heat.
(§1) By mixing with fractionated coconut oil, or medium-chain triglyceride (MCT), a stable emulsion can be formed, which simplifies oral administration of CBD. Some products can mix the full spectrum CBD oil with alcohol or MCT oil, which is known as a tincture. […] For example, a batch of CBD/MCT oil was made using a ratio of 100 mg/ml, which allowed delivery as a spray to the mouth of 20 mg CBD per spray (one spray per serving). In another experiment, a second batch of oil targeted at 33 mg/ml, which targeted 6-7 mg per spray (2-3 sprays per serving). Performance can continue to be less impressive than the CBD powder.

[2] = Earlier CBD products (isolate powder, liquid CBD/vitamin E mixture, MCT emulsion) as used orally; format: in vivo; details: particularly relieving stiffness in joints
Source text: Prior to preparing the compositions described herein, other CBD products were made, which include food products, including beverages, and mixtures with multiple components, such as an oil/liquid form that is taken directly from a dropper. The products can be flavored. A CBD isolate powder, which is a high purity CBD, can have powerful, and instant benefits. A water soluble CBD/vitamin E mixture can be included in food and drink such as cold pressed juice. […] However, the powder was difficult to work with and dose.
as §1

[3] = increase of 1 mMol in plasma caprylic acid levels; cited from earlier work

## C=C(C)[C@@H]1CCC(C)=C[C@H]1c1c(O)cc(CCCCC)cc1O [CBD isolate powder, cannabidiol]
[1]
  water solubility: not water soluble
[2]
  anti-inflammatory effect: exhibited anti-inflammatory properties

## CCCCCCCC(=O)O [caprylic acid]
[3]
  increase of ketone body production: five-fold
